# According to US12128035B2, “Activating pyruvate kinase R” (Novo Nordisk Health Care AG, priority 2021, dated 2024):
# Tested on: ATP blood levels
# Assay: Phase 1 SAD/MAD: blood ATP (LC-MS/MS) in healthy volunteers
# Format: in vivo, human
# Protocol: In this study, SAD/MAD cohorts are randomized (3 to 1) to receive Compound 1 or placebo (P). Compound 1 was evaluated first in 4 healthy SAD cohorts and 4 healthy MAD (14-day dosing period) cohorts. Based on the safety, and PK/PD profile from HS, Compound 1 is then evaluated in 1 SCD SAD cohort and 2 SCD MAD cohorts. Specifically, based on the safety and pharmacokinetic/pharmacodynamics (PK/PD) profile in healthy volunteer studies, Compound 1 is evaluated in patients (pts) with SCD, first in a single dose (SD or SAD) cohort and then in multiple-dose (MD or MAD) cohorts (14-day and 12-week). Safety assessments include AEs, vital signs, ECGs and laboratory parameters. PK/PD blood sampling was performed on Day 1 (SAD/MAD) and Day 14 (MAD) and up to 72 h after the last dose and at the end-of-study visit. PD parameters included 2,3-DPG, ATP, and p50 in all cohorts with additional PD studies (including oxygen scan) performed only in the SCD cohorts. PD parameters included 2,3-DPG, ATP, p50, RBC deformability with controlled deoxygenation and reoxygenation (Lorrca® oxygen scan) and varying osmolality (Lorrca® osmoscan)). To maintain study blind, pt identifiers were removed when needed.
# In the MAD cohorts, the subjects' blood ATP levels were measured […] by a qualified LC-MS/MS method for the quantitation of ATP in blood. […] Table 20A reports the median percentage change in blood ATP levels, relative to baseline, measured over time after the first dose on days 1 and 14 in healthy volunteers who received daily doses of Compound 1 (100 mg BID, 200 mg BID, 300 mg BID, or 400 mg QD) or placebo for 14 days. Table 20B reports the mean percentage change in ATP blood levels, relative to baseline, measured over time after the first dose on days 1 and 14 in healthy volunteers who received daily doses of Compound 1 (100 mg BID, 200 mg BID, 300 mg BID, or 400 mg QD) for 14 days.
# The following procedures are employed for the analysis of ATP and 2,3-DPG in human whole blood K2EDTA using a protein precipitation extraction procedure and analysis by LC-MS/MS.
# The following procedures are used for sample extraction prior to analysis via LC-MS/MS. 15.0 μL of the calibration standards, quality controls, matrix blanks, and samples are aliquoted into a 96-well plate. 50.0 μL of the internal standard spiking solution is added to all samples on the plate, with the exception of the matrix blank samples; 50.0 μL of water is added to the matrix blank samples. Subsequently, 150 μL of water is added to all samples on the plate. The plate is then covered and agitated by vortex at high speed for ten minutes, after which 750 μL of methanol is added to all samples on the plate. The plate is covered and agitated by vortex for approximately 1 minute. The plate is then centrifuged at approximately 3500 RPM at approximately 4° C. for five minutes. After centrifugation, a liquid handler is used to transfer 50 μL of each sample to a new 96-well plate, and 200 μL of acetonitrile is added to all samples on the plate. The newly prepared plate is covered and agitated by vortex for approximately 1 minute. The plate is then centrifuged at approximately 3500 RPM at approximately 4° C. for 2 minutes.
# [1] = HV 100 mg BID, Day 1, 0 h after first daily dose
# [2] = HV 100 mg BID, Day 1, 6 h after first daily dose
# [3] = HV 100 mg BID, Day 1, 8 h after first daily dose
# [4] = HV 100 mg BID, Day 1, 12 h after first daily dose
# [5] = HV 100 mg BID, Day 1, 16 h after first daily dose
# [6] = HV 100 mg BID, Day 1, 24 h after first daily dose
# [7] = HV 100 mg BID, Day 14, 0 h after first daily dose
# [8] = HV 100 mg BID, Day 14, 6 h after first daily dose
# [9] = HV 100 mg BID, Day 14, 8 h after first daily dose
# [10] = HV 100 mg BID, Day 14, 12 h after first daily dose
# [11] = HV 100 mg BID, Day 14, 16 h after first daily dose
# [12] = HV 100 mg BID, Day 14, 24 h after first daily dose
# [13] = HV 100 mg BID, Day 14, 48 h after first daily dose
# [14] = HV 100 mg BID, Day 14, 72 h after first daily dose
# [15] = HV 200 mg BID, Day 1, 0 h after first daily dose
# [16] = HV 200 mg BID, Day 1, 6 h after first daily dose
# [17] = HV 200 mg BID, Day 1, 8 h after first daily dose
# [18] = HV 200 mg BID, Day 1, 12 h after first daily dose
# [19] = HV 200 mg BID, Day 1, 16 h after first daily dose
# [20] = HV 200 mg BID, Day 1, 24 h after first daily dose
# [21] = HV 200 mg BID, Day 14, 0 h after first daily dose
# [22] = HV 200 mg BID, Day 14, 6 h after first daily dose
# [23] = HV 200 mg BID, Day 14, 8 h after first daily dose
# [24] = HV 200 mg BID, Day 14, 12 h after first daily dose
# [25] = HV 200 mg BID, Day 14, 16 h after first daily dose
# [26] = HV 200 mg BID, Day 14, 24 h after first daily dose
# [27] = HV 200 mg BID, Day 14, 48 h after first daily dose
# [28] = HV 200 mg BID, Day 14, 72 h after first daily dose
# [29] = HV 300 mg BID, Day 1, 0 h after first daily dose
# [30] = HV 300 mg BID, Day 1, 6 h after first daily dose
# [31] = HV 300 mg BID, Day 1, 8 h after first daily dose
# [32] = HV 300 mg BID, Day 1, 12 h after first daily dose
# [33] = HV 300 mg BID, Day 1, 16 h after first daily dose
# [34] = HV 300 mg BID, Day 1, 24 h after first daily dose
# [35] = HV 300 mg BID, Day 14, 0 h after first daily dose
# [36] = HV 300 mg BID, Day 14, 6 h after first daily dose
# [37] = HV 300 mg BID, Day 14, 8 h after first daily dose
# [38] = HV 300 mg BID, Day 14, 12 h after first daily dose
# [39] = HV 300 mg BID, Day 14, 16 h after first daily dose
# [40] = HV 300 mg BID, Day 14, 24 h after first daily dose
# [41] = HV 300 mg BID, Day 14, 48 h after first daily dose
# [42] = HV 300 mg BID, Day 14, 72 h after first daily dose
# [43] = HV 400 mg QD, Day 1, 0 h after first daily dose
# [44] = HV 400 mg QD, Day 1, 6 h after first daily dose
# [45] = HV 400 mg QD, Day 1, 8 h after first daily dose
# [46] = HV 400 mg QD, Day 1, 12 h after first daily dose
structure (smiles),measurement,setting,value
"O=C([C@H](CO)c1ccccc1)N1CC2=C(C1)CN(S(=O)(=O)c1cnc3c(c1)OCCO3)C2 (single isomer, unassigned) [Compound 1]",Mean Percentage Change in ATP Levels,[1],0%
same,Median Percentage Change in ATP Levels,[1],0%
same,Mean Percentage Change in ATP Levels,[2],−5.6%
same,Median Percentage Change in ATP Levels,[2],−5.7%
same,Mean Percentage Change in ATP Levels,[3],−2.0%
same,Median Percentage Change in ATP Levels,[3],0.0%
same,Mean Percentage Change in ATP Levels,[4],−0.6%
same,Median Percentage Change in ATP Levels,[4],−1.2%
same,Mean Percentage Change in ATP Levels,[5],1.9%
same,Median Percentage Change in ATP Levels,[5],3.3%
same,Mean Percentage Change in ATP Levels,[6],4.4%
same,Median Percentage Change in ATP Levels,[6],5.7%
same,Mean Percentage Change in ATP Levels,[7],49%
same,Median Percentage Change in ATP Levels,[7],42%
same,Mean Percentage Change in ATP Levels,[8],45%
same,Median Percentage Change in ATP Levels,[8],44%
same,Mean Percentage Change in ATP Levels,[9],49%
same,Median Percentage Change in ATP Levels,[9],48%
same,Mean Percentage Change in ATP Levels,[10],45%
same,Median Percentage Change in ATP Levels,[10],45%
same,Mean Percentage Change in ATP Levels,[11],47%
same,Median Percentage Change in ATP Levels,[11],45%
same,Mean Percentage Change in ATP Levels,[12],55%
same,Median Percentage Change in ATP Levels,[12],55%
same,Mean Percentage Change in ATP Levels,[13],51%
same,Median Percentage Change in ATP Levels,[13],52%
same,Mean Percentage Change in ATP Levels,[14],47%
same,Median Percentage Change in ATP Levels,[14],49%
same,Mean Percentage Change in ATP Levels,[15],0%
same,Median Percentage Change in ATP Levels,[15],0%
same,Mean Percentage Change in ATP Levels,[16],1.7%
same,Median Percentage Change in ATP Levels,[16],−4.3%
same,Mean Percentage Change in ATP Levels,[17],4.7%
same,Median Percentage Change in ATP Levels,[17],5.4%
same,Mean Percentage Change in ATP Levels,[18],6.7%
same,Median Percentage Change in ATP Levels,[18],4.3%
same,Mean Percentage Change in ATP Levels,[19],5.6%
same,Median Percentage Change in ATP Levels,[19],6.0%
same,Mean Percentage Change in ATP Levels,[20],−0.2%
same,Median Percentage Change in ATP Levels,[20],1.1%
same,Mean Percentage Change in ATP Levels,[21],59%
same,Median Percentage Change in ATP Levels,[21],62%
same,Mean Percentage Change in ATP Levels,[22],50%
same,Median Percentage Change in ATP Levels,[22],48%
same,Mean Percentage Change in ATP Levels,[23],56%
same,Median Percentage Change in ATP Levels,[23],58%
same,Mean Percentage Change in ATP Levels,[24],56%
same,Median Percentage Change in ATP Levels,[24],56%
same,Mean Percentage Change in ATP Levels,[25],53%
same,Median Percentage Change in ATP Levels,[25],57%
same,Mean Percentage Change in ATP Levels,[26],66%
same,Median Percentage Change in ATP Levels,[26],65%
same,Mean Percentage Change in ATP Levels,[27],62%
same,Median Percentage Change in ATP Levels,[27],70%
same,Mean Percentage Change in ATP Levels,[28],57%
same,Median Percentage Change in ATP Levels,[28],54%
same,Mean Percentage Change in ATP Levels,[29],0%
same,Median Percentage Change in ATP Levels,[29],0%
same,Mean Percentage Change in ATP Levels,[30],−4.5%
same,Median Percentage Change in ATP Levels,[30],−7.6%
same,Mean Percentage Change in ATP Levels,[31],−2.0%
same,Median Percentage Change in ATP Levels,[31],−2.4%
same,Mean Percentage Change in ATP Levels,[32],−0.6%
same,Median Percentage Change in ATP Levels,[32],0.9%
same,Mean Percentage Change in ATP Levels,[33],−0.5%
same,Median Percentage Change in ATP Levels,[33],−1.1%
same,Mean Percentage Change in ATP Levels,[34],2.2%
same,Median Percentage Change in ATP Levels,[34],1.8%
same,Mean Percentage Change in ATP Levels,[35],46%
same,Median Percentage Change in ATP Levels,[35],46%
same,Mean Percentage Change in ATP Levels,[36],51%
same,Median Percentage Change in ATP Levels,[36],51%
same,Mean Percentage Change in ATP Levels,[37],52%
same,Median Percentage Change in ATP Levels,[37],50%
same,Mean Percentage Change in ATP Levels,[38],49%
same,Median Percentage Change in ATP Levels,[38],51%
same,Mean Percentage Change in ATP Levels,[39],52%
same,Median Percentage Change in ATP Levels,[39],53%
same,Mean Percentage Change in ATP Levels,[40],56%
same,Median Percentage Change in ATP Levels,[40],52%
same,Mean Percentage Change in ATP Levels,[41],57%
same,Median Percentage Change in ATP Levels,[41],58%
same,Mean Percentage Change in ATP Levels,[42],48%
same,Median Percentage Change in ATP Levels,[42],49%
same,Mean Percentage Change in ATP Levels,[43],0%
same,Median Percentage Change in ATP Levels,[43],0%
same,Mean Percentage Change in ATP Levels,[44],−1.2%
same,Median Percentage Change in ATP Levels,[44],−1.7%
same,Mean Percentage Change in ATP Levels,[45],−2.9%
same,Median Percentage Change in ATP Levels,[45],−4.5%
same,Mean Percentage Change in ATP Levels,[46],2.4%
same,Median Percentage Change in ATP Levels,[46],3.5%
same,Mean Percentage Change in ATP Levels,"HV 400 mg QD, Day 1, 16 h after first daily dose",−2.2%
